Tests used:
[1] = (§1) The drug is tested on Z-027 corresponding to metagenome with ENA study accession number: PRJEB37062 and ENA sample accession number: ERS12561826 for biotransformation under anaerobic condition. The drug concentrations were measured over 9 timepoints collected between 0 and 24 hours of incubation by liquid-chromatography-coupled mass spectrometry (LC–MS); settings: 2 µM
[2] = as §1, with “Z-023” for “Z-027”, “ERS12561822” for “ERS12561826”; settings: 2 µM
[3] = as §1, with “Z-021” for “Z-027”, “ERS12561820” for “ERS12561826”; settings: 2 µM
[4] = (§2) The drug is tested on Z-020 corresponding to rabbit gut metagenome with ENA study accession number: PRJEB37062 and ENA sample accession number: ERS12561819 for biotransformation under anaerobic condition. The drug concentrations were measured over 9 timepoints collected between 0 and 24 hours of incubation by liquid-chromatography-coupled mass spectrometry (LC–MS); settings: 2 µM
[5] = as §2, with “Z-018” for “Z-020”, “pig” for “rabbit”, “ERS12561817” for “ERS12561819”; settings: 2 µM
[6] = as §2, with “Z-016” for “Z-020”, “mouse” for “rabbit”, “ERS12561815” for “ERS12561819”; settings: 2 µM
[7] = as §1, with “Z-010” for “Z-027”, “ERS12561810” for “ERS12561826”; settings: 2 µM
[8] = as §1, with “Z-008” for “Z-027”, “ERS12561808” for “ERS12561826”; settings: 2 µM
[9] = as §2, with “Z-006” for “Z-020”, “mouse” for “rabbit”, “ERS12561806” for “ERS12561819”; settings: 2 µM
[10] = as §2, with “WLS-350” for “Z-020”, “human” for “rabbit”, “ERS12561789” for “ERS12561819”; settings: 2 µM
[11] = as §2, with “WLS-170” for “Z-020”, “human” for “rabbit”, “ERS12561762” for “ERS12561819”; settings: 2 µM
[12] = as §2, with “WLS-038” for “Z-020”, “human” for “rabbit”, “ERS12561745” for “ERS12561819”; settings: 2 µM
[13] = as §2, with “WLS-007” for “Z-020”, “human” for “rabbit”, “ERS12561742” for “ERS12561819”; settings: 2 µM
[14] = human gut metagenome, 24 h, 2 µM
[15] = human gut metagenome, 24 h, 2 µM; remark: listed apart in the source
[16] = human gut metagenome, 24 h, 2 µM; remark: listed apart in the source
[17] = human gut metagenome, 24 h, 2 µM; remark: listed apart in the source
[18] = human gut metagenome, 24 h, 2 µM; remark: listed apart in the source
[19] = human gut metagenome, 24 h, 2 µM; remark: listed apart in the source
[20] = human gut metagenome, 24 h, 2 µM; remark: listed apart in the source
Note: call rule not given here.

| SMILES | Bacterial Biotransformation [1] | Bacterial Biotransformation [2] | Bacterial Biotransformation [3] | Bacterial Biotransformation [4] | Bacterial Biotransformation [5] | Bacterial Biotransformation [6] | Bacterial Biotransformation [7] | Bacterial Biotransformation [8] | Bacterial Biotransformation [9] | Bacterial Biotransformation [10] | Bacterial Biotransformation [11] | Bacterial Biotransformation [12] | Bacterial Biotransformation [13] | Bacterial Biotransformation [14] | Bacterial Biotransformation [15] | Bacterial Biotransformation [16] | Bacterial Biotransformation [17] | Bacterial Biotransformation [18] | Bacterial Biotransformation [19] | Bacterial Biotransformation [20] |
| --- | --- | --- | --- | --- | --- | --- | --- | --- | --- | --- | --- | --- | --- | --- | --- | --- | --- | --- | --- | --- |
| O=C(Nc1ccccc1)OCC(CN1CCCCC1)OC(=O)Nc1ccccc1 (stereo not given) [DIPERODON] | Compound NOT metabolized | Compound metabolized | Compound NOT metabolized | Compound NOT metabolized | Compound NOT metabolized | Compound NOT metabolized | Compound metabolized | Compound NOT metabolized | Compound NOT metabolized | Compound metabolized | Compound metabolized | Compound NOT metabolized | Compound NOT metabolized | Compound metabolized | Compound NOT metabolized | Compound metabolized | Compound metabolized | Compound NOT metabolized | Compound NOT metabolized | Compound NOT metabolized |
| NC12CC3CC(CC(C3)C1)C2 [AMANTADINE] | Compound NOT metabolized | Compound NOT metabolized | Compound NOT metabolized | Compound NOT metabolized | Compound NOT metabolized | Compound NOT metabolized | Compound NOT metabolized | Compound NOT metabolized | Compound NOT metabolized | Compound NOT metabolized | Compound metabolized | Compound NOT metabolized | Compound NOT metabolized | Compound NOT metabolized | Compound NOT metabolized | Compound NOT metabolized | Compound NOT metabolized | Compound NOT metabolized | Compound NOT metabolized | Compound NOT metabolized |
| COC1=CC(=O)C[C@@H](C)[C@]12Oc1c(Cl)c(OC)cc(OC)c1C2=O [GRISEOFULVIN] | Compound metabolized | Compound metabolized | Compound metabolized | Compound NOT metabolized | Compound metabolized | Compound metabolized | Compound metabolized | Compound NOT metabolized | Compound metabolized | Compound NOT metabolized | Compound metabolized | Compound metabolized | Compound metabolized | Compound metabolized | Compound NOT metabolized | Compound metabolized | Compound metabolized | Compound metabolized | Compound metabolized | Compound metabolized |
| CCN(CC)C(C)CN1c2ccccc2Sc2ccccc21 (stereo not given) [ETHOPROPAZINE] | Compound NOT metabolized | Compound metabolized | Compound metabolized | Compound NOT metabolized | Compound metabolized | Compound NOT metabolized | Compound metabolized | Compound NOT metabolized | Compound NOT metabolized | Compound metabolized | Compound metabolized | Compound NOT metabolized | Compound metabolized | Compound metabolized | Compound metabolized | Compound metabolized | Compound metabolized | Compound metabolized | Compound metabolized | Compound NOT metabolized |
| Cc1ccc(-c2nc3ccc(C)cn3c2CC(=O)N(C)C)cc1 [ZOLPIDEM] | Compound NOT metabolized | Compound metabolized | Compound NOT metabolized | Compound NOT metabolized | Compound NOT metabolized | Compound NOT metabolized | Compound metabolized | Compound NOT metabolized | Compound NOT metabolized | Compound NOT metabolized | Compound NOT metabolized | Compound NOT metabolized | Compound NOT metabolized | Compound metabolized | Compound NOT metabolized | Compound NOT metabolized | Compound metabolized | Compound NOT metabolized | Compound NOT metabolized | Compound NOT metabolized |
| O=c1[nH]c2ccccc2n1C1CCN(CCCC(c2ccc(F)cc2)c2ccc(F)cc2)CC1 [PIMOZIDE] | Compound NOT metabolized | Compound NOT metabolized | Compound metabolized | Compound metabolized | Compound metabolized | Compound metabolized | Compound metabolized | Compound metabolized | Compound metabolized | Compound metabolized | Compound metabolized | Compound metabolized | Compound metabolized | Compound metabolized | Compound metabolized | Compound NOT metabolized | Compound metabolized | Compound metabolized | Compound NOT metabolized | Compound NOT metabolized |
| Cc1cc2c(cc1S(N)(=O)=O)S(=O)(=O)CCC2 | Compound NOT metabolized | Compound NOT metabolized | Compound NOT metabolized | Compound NOT metabolized | Compound NOT metabolized | Compound NOT metabolized | Compound NOT metabolized | Compound NOT metabolized | Compound NOT metabolized | Compound NOT metabolized | Compound NOT metabolized | Compound NOT metabolized | Compound NOT metabolized | Compound NOT metabolized | Compound NOT metabolized | Compound NOT metabolized | Compound NOT metabolized | Compound NOT metabolized | Compound NOT metabolized | Compound NOT metabolized |
| CC[C@@H](CO)NC(=O)[C@@H]1C=C2c3cccc4c3c(cn4C)C[C@H]2N(C)C1.O=C(O)/C=C\C(=O)O [METHYSERGIDE MALEATE] | Compound NOT metabolized | Compound NOT metabolized | Compound NOT metabolized | Compound NOT metabolized | Compound NOT metabolized | Compound NOT metabolized | Compound NOT metabolized | Compound NOT metabolized | Compound NOT metabolized | Compound NOT metabolized | Compound metabolized | Compound NOT metabolized | Compound NOT metabolized | Compound NOT metabolized | Compound NOT metabolized | Compound NOT metabolized | Compound metabolized | Compound NOT metabolized | Compound NOT metabolized | Compound NOT metabolized |
